Holding throughout (format): cell-based
For assay [1], the target named is T1, SMARCA2 (Homo sapiens, UniProt P51531). In words: MSD SMARCA2 degradation in NCI-H1299 cell line. The arrangement: endogenous in cells. Particulars: NCI-H1299 cells, 24 hours. The procedure:
Example 8. MSD SMARCA2 Degradation in NCI-H1299 Cell Line
Cell Culture: Cells were Cultured in Exponential Growth Phase.
Compound Preparation and Treatment: NCI-H1299 cells were seeded into the 96-well plate at 4.0*10^4 cells per 100 ul per well. Incubate the plate in the incubator overnight. The next day, compounds were diluted to designed stock concentration by TECAN, then perform a 3 fold, 9-point dilution via transferring 15 uL compound into 30 μL DMSO using Apricot. 200 nL diluted compound from compound source plate were transferred into the 96-intermediate plate as designated by using Echo550, followed with 100 ul culture medium to make the 2× compound solution. Cell plate were changed with 80 ul of fresh culture medium and 80 ul of 2× compound solution was added into the well to achieve the final designed concentration. Cell plate was then shaken at 720 rpm for 5 min and incubated for 24 hours in the incubator.
Sample Preperation: Media was aspirated from the cultures and the plate was washed with PBS twice. 60 ul of pre-chilled PIPA lysis buffer (Boston BioProducts BP-115D) with protease inhibitor were directly added into the well to lyze the cells for 20 minutes at 4° C. Cell lysates were collected.
MSD Procedure: The MSD plate was coated with 40 ul cell lysate and incubated at 4° C. overnight. The next day, the MSD coated bare plate was washed 3 times with 150 ul 1×TBST per well, blocked with 150 ul of blocking buffer per well, and shaken for 1 hour at RT, 600 rpm. Blocking buffer was 3% Blocker A in TBST. MSD plate was then washed 3 times with 150 ul 1× TBST per well and Primary Detection antibody (Rabbit anti-SMARCA2/BRM antibody, 100 μg/ml, ab223735) was added to a final [conc.]: 0.3 ug/ml, 25 ul/well and shaken for 1 hour at RT, 600 rpm. Antibody was prepared in Antibody Detection buffer (1% Blocker A in 1×TBST). The MSD plate was then washed 3 times with 150 ul 1×TBST per well. Secondary Detection antibody (SULFO-TAG anti-species antibody) was then added to a final [conc.]: 1 ug/ml, 25 ul/well, and shaken for 1 hour at RT, 600 rpm. Antibodies were prepared in Antibody Detection buffer (1% Blocker A in 1×TBST). MSD plate was washed 3 times with 150 ul 1×TBST per well and 2× MSD reading buffer was added, 150 ul per well, and diluted from 4× with water. MSD instrument was then read.
Data Analysis: The percentage of relative level of SMARCA2 level was calculated following equation below.
LC: A2780, SMARCA2 negative cells. HC: NCI-H1299 cells treated with DMSO.

For assay [2], the target named is T2, SMARCA4 (Homo sapiens, UniProt P51532).
T2 construct: endogenous in cells; host or cells: MV4-11
T2 sequence (P51532 whole entry): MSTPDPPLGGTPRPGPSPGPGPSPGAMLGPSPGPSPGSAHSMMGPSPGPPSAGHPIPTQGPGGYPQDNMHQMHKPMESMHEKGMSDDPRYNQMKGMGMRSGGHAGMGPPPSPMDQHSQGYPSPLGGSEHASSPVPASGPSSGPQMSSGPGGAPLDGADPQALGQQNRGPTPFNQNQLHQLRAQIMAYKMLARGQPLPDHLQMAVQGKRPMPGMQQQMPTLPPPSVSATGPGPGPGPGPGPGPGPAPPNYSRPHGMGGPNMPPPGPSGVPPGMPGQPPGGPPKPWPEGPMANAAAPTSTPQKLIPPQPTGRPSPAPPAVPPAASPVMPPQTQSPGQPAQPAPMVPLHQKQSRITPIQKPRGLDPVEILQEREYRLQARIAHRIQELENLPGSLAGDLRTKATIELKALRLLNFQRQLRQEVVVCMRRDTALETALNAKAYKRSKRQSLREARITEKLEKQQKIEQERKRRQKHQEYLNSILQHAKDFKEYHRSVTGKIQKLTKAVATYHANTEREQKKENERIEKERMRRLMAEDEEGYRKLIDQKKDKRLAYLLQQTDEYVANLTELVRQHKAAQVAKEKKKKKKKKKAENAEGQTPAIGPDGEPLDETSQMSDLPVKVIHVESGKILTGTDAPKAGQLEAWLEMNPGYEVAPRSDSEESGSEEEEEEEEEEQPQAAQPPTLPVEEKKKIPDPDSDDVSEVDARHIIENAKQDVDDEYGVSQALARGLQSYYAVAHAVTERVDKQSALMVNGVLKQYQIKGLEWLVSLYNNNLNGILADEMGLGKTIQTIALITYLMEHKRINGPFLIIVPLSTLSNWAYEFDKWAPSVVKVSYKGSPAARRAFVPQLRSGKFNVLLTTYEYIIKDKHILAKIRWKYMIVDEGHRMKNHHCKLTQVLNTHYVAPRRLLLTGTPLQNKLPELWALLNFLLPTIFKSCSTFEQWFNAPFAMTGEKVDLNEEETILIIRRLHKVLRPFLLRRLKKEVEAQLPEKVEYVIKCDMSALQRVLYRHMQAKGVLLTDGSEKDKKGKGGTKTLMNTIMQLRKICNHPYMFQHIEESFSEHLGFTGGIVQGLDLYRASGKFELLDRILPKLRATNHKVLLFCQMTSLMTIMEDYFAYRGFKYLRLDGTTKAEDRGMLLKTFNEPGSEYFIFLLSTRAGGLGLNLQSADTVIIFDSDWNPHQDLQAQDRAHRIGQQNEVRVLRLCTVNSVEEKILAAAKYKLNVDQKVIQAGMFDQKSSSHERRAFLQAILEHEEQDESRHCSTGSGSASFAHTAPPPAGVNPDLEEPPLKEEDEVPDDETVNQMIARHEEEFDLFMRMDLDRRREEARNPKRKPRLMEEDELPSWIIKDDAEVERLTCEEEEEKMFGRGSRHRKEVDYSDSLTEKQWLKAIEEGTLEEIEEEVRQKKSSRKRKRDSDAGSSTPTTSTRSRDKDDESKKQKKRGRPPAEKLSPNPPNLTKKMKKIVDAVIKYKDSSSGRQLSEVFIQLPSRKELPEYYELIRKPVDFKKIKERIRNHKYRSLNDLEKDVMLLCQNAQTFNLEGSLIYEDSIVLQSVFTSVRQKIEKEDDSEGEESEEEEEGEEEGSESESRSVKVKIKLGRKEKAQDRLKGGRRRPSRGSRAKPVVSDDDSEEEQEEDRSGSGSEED
In words: SMARCA4 Western blot MV4-11 degradation. The note with it: MV4-11 cells, 24 hours; for Dmax: read-out: SMARCA4 WB MV411 degradation 24h: Average Dmax %; for DC50: read-out: SMARCA4 WB MV411 degradation 24h: Average external-Abs DC50. As for the experimental part: (§1) Example 10. SMARCA2 and SMARCA 4 Western Blot MV4-11 Degradation
(§2) Cells were seeded into 6-well plates (MV4-11: 4×10^6 cells/well/1 ml) and 1 ml of 2× compound solution was added into the well to make the final concentration and the plates were mixed well and incubated for 24 hours (No cytotoxicity was observed). The cell were collected with media and spun at 3000 rpm for 5 minutes. The supernatant was aspirated and the well and the cells were washed with cold PBS once and combined for centrifugation again; the supernatant aspirated again. 200 ul pre-chilled RIPAlysis buffer (Boston BioProducts BP-115D) with protease/phosphatase inhibitor (Roche 05892791001/Roche 04906837001) was directly added into the tube to lyze the cells for 20 minutes on ice. The cell lysate were collected into EP tubes and spun at 13000 rpm for 20 minutes and 72 ul supernatant was transferred to a fresh EP tube containing 18 ul of 5× loading buffer (Beyotime Bio P0015) to make the loading samples. The samples were heated to 100° C. for 10 minutes and cooled to RT and microcentrifuged. 20 ul of samples were loaded onto SDS-PAGE gel (Novex, WG1402BOX) and the gel was run at 80 V for 20 minutes and 120 V for 1.5 hours. The samples were electrotransfer to a NC membrane using wet-transfer method with 250 mA for 2.5 hours. The membrane was blocked with LICOR blocking buffer (LI-COR, 927-50000) for 1 hour. The membrane was washed three times with TBST (CST #9997S), 5 minutes each. Incubation was performed with primary antibody prepared in blocking buffer with 0.1% Tween-20 (Solarbio, P8220) at 4° C. overnight (Anti-SMARCA2/BRM antibody (ab15597) 1:500; Anti-BRG1 antibody [EPR3912] (ab108318) 1:1000; Rabbit anti-Baf180 antibody [EPR15860] (Abcam,ab196022) 1:1000; mouse anti-beta-Actin (8H10D10) (CST #3700) 1:10000). The membrane was washed three times with TBST, 5 minutes each. Incubation with secondary antibody was performed for 1 hour at RT (anti-rabbit IgG (Licor, 926-32211) 1:5000; anti-mouse IgG (LI-COR, 926-68070) 1:5000). The membrane was washed three times with 5 minutes each and lastly the LiCOR was read.
(In western blotting, separated proteins are transferred to a membrane and probed.)

Assay [3] concerns the target T1, SMARCA2. The assay can be described thus: SMARCA2 Western blot MV4-11 degradation. Further details: endogenous in cells. Particulars: MV4-11 cells, 24 hours. As for the experimental part:
as §1
as §2, with “The membrane was blocked with LICOR blocking buffer (LI-COR, 927-50000) for 1 hour. The membrane was washed three times with TBST (CST #9997S), 5 minutes each. Incubation was performed with primary antibody prepared in blocking buffer with 0.1% Tween-20 (Solarbio, P8220) at 4° C. overnight (Anti-SMARCA2/BRM antibody (ab15597) 1:500; Anti-BRG1 antibody [EPR3912] (ab108318) 1:1000; Rabbit anti-Baf180 antibody [EPR15860] (Abcam,ab196022) 1:1000; mouse anti-beta-Actin (8H10D10) (CST #3700) 1:10000). The membrane was washed three times with TBST, 5 minutes each. Incubation with secondary antibody was performed for 1 hour at RT (anti-rabbit IgG (Licor, 926-32211) 1:5000; anti-mouse IgG (LI-COR, 926-68070) 1:5000).” left out

Assay [4] has as its target T1, SMARCA2. In words: MSD SMARCA2 degradation in A549 cell line. The arrangement: endogenous in cells; host or cells: A549. Particulars: A549 cells, 24 hours; for DC50: read-out: SMARCA2 MSD A549 degradation 24h: Average external-Abs DC50. As for the experimental part: Example 9. MSD SMARCA2 Degradation in A549 Cell Line
Cells were seeded into 96-well plates (A549 cells: 2×10^4 cells/well/100 ul media) abd incubated overnight. The next day, 200 nl compound were added into the intermediate plate with Echo (Labcyte 550) from source plate containing a 3-fold serial dilution from top concentration of 1 mM. The culture medium was changed with 80 ul of fresh medium and 80 ul of 2× compound solution was added into the well to make a final concentration of 1000 nM, 333.3 nM, 111.1 nM, 37.04 nM, 12.35 nM, 4.115 nM, 1.372 nM, 0.457 nM, 0.152 nM and 0 nM (DMSO). The wells were mixed and then incubated for 24 hours. The media was aspirated from the cultures and 60 ul pre-chilled PIPA lysis buffer (Boston BioProducts BP-115D) with protease/phosphatase inhibitor (Roche 05892791001/Roche 04906837001) was added into the well to lyze the cells for 20 minutes at 4° C. The MSD plate (L15XA) was coated with 40 ul cell lysate and incubated at 4° C. overnight. The next day, the plate was washed three times with TBST (CST #9997S), 150 ul/well. The MSD plates was blocked with 150 ul blocking buffer per well and shaked for 1 hr at RT, 600 rpm. The blocking buffer was 3% Blocker A (MSD, R93BA-4) in TBST. The MSD plate was washed three times with 150 ul/well of TBST and 25 ul/well of detection antibody (Rabbit anti-SMARCA2/BRM antibody, 100 μg/ml, ab223735) was added at final concentration of 1 ug/ml diluted in 1% Blocking buffer and shaken for 1 hour at RT, 600 rpm. The MSD plate was washed three times with 150 ul/well of TBST and 25 ul/well of SULFO-TAG anti-rabbit antibody (MSD, R32AB-1) was added at final concentration of 1 ug/ml diluted in 1% Blocking buffer and shaken for 1 hour at RT, 600 rpm. The MSD plate was washed three times with 150 ul/well of TBST and 150 ul/well of 2×MSD reading buffer diluted from 4× (MSD, R92TC-2) with water was added. Lastly, the MSD instrument was read.

Where only a bound is given, the exact number is not on record here.

T1 sequence (P51531 whole entry): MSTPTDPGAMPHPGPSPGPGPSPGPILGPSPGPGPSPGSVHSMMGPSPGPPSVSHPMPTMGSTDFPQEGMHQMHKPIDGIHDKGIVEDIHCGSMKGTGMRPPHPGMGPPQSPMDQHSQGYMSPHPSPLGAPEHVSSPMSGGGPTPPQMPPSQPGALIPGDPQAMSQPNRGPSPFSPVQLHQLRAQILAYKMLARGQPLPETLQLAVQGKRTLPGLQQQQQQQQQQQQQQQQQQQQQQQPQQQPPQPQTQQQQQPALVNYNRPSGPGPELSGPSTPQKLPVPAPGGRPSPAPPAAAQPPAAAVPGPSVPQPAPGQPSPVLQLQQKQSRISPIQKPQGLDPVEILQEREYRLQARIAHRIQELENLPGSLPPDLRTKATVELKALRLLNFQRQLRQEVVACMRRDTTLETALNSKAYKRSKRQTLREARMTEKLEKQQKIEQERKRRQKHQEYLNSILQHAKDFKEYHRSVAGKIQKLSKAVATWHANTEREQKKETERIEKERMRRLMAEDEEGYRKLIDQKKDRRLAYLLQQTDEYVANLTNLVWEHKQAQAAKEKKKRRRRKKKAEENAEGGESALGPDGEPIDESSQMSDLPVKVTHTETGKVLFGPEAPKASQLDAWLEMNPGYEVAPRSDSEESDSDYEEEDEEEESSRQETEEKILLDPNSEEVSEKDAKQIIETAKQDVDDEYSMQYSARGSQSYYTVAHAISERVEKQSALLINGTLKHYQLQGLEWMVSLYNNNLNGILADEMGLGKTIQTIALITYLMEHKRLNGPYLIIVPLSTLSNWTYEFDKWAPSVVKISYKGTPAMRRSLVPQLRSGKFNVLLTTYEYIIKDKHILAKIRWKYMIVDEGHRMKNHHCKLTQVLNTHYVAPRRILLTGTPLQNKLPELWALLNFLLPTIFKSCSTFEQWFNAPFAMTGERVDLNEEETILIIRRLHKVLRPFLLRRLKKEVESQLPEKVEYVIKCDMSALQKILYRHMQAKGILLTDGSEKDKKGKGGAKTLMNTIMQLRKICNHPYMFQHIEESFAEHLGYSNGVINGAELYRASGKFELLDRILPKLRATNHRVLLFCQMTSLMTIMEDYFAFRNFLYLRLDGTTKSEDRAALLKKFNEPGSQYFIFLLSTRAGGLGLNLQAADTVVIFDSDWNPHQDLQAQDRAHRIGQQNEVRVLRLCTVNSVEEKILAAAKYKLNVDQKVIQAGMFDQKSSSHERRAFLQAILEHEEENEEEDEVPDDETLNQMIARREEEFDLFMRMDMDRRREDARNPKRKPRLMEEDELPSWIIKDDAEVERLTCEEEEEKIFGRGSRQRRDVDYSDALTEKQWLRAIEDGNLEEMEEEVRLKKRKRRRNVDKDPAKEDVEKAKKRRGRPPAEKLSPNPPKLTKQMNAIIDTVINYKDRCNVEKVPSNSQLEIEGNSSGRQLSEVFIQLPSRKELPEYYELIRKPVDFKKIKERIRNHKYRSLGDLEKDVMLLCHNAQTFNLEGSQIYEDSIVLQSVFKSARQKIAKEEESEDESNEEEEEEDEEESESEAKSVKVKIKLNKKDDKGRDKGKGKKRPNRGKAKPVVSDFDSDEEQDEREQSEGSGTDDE

As a reminder, the Dmax is the greatest extent of degradation seen. In turn, `Cc1ncsc1-c1ccc(CNC(=O)[C@@H]2C[C@@H](O)CN2C(=O)[C@@H](NC(=O)CCCCCN2CCC(c3c[nH]c4nnc(-c5ccccc5O)cc34)CC2)C(C)(C)C)cc1` [I-9] gave a Dmax in assay [1] of under 50%.
In the case of `Cn1c(=O)n(C2CCC(=O)NC2=O)c2cccc(CCCN3CCC(c4c[nH]c5nnc(-c6ccccc6O)cc45)CC3)c21` (centres unmarked) [I-11, 3-(4-(3-(4-(3-(2-hydroxyphenyl)-7H-pyrrolo[2,3-c]pyridazin-5-yl)piperidin-1-yl)propyl)-3-methyl-2-oxo-2,3-dihydro-1H-benzo[d]imidazol-1-yl)piperidine-2,6-dione], the Dmax in assay [2] and in assay [1] was under 50% each time.
Usually DC50 stands for the concentration at which degradation of the target reaches its halfway point. In the case of `Cc1ncsc1-c1ccc(CNC(=O)[C@@H]2C[C@@H](O)CN2C(=O)[C@@H](NC(=O)[C@H]2CC[C@H](c3cnc(N4CCC(c5c[nH]c6nnc(-c7ccccc7O)cc56)CC4)nc3)CC2)C(C)(C)C)cc1` [I-46, (2S,4R)-4-hydroxy-1-((S)-2-((1r,4S)-4-(2-(4-(3-(2-hydroxyphenyl)-7H-pyrrolo[2,3-c]pyridazin-5-yl)piperidin-1-yl)pyrimidin-5-yl)cyclohexanecarboxamido)-3,3-dimethylbutanoyl)-N-(4-(4-methylthiazol-5-yl)benzyl)pyrrolidine-2-carboxamide], the Dmax was 50 to 70% in assay [2], over 90% in assay [3] (read-out: SMARCA2 WB MV411 degradation 24h: Average Dmax %) and over 90% in assay [4]. The DC50 in assay [2] is over 1000 nM; in assay [3] (read-out: SMARCA2 WB MV411 degradation 24h: Average external-Abs DC50) it was under 100 nM; in assay [4] it was under 100 nM.
Regarding `Cn1c(=O)n(C2CCC(=O)NC2=O)c2cccc(CN3CCC(c4c[nH]c5nnc(-c6ccccc6O)cc45)CC3)c21` (centres unmarked) [I-13], the Dmax in assay [2] and in assay [1] was under 50% each time. The DC50 in assay [2] was under 100 nM.
As for `Cn1c(=O)n(C2CCC(=O)NC2=O)c2cccc(CCCCCN3CCC(c4c[nH]c5nnc(-c6ccccc6O)cc45)CC3)c21` (centres unmarked) [I-10], in assay [2], the Dmax is under 50% and the DC50 is under 100 nM. The compound also registered a Dmax in assay [1] of under 50%.
In assay [1], `Cc1ncsc1-c1ccc(CNC(=O)[C@@H]2C[C@@H](O)CN2C(=O)[C@@H](NC(=O)CCCCCCCCCN2CCC(c3c[nH]c4nnc(-c5ccccc5O)cc34)CC2)C(C)(C)C)cc1` [I-8] showed a Dmax of 50 to 70%.
`Cn1c(=O)n(C2CCC(=O)NC2=O)c2ccc(CCCCCCCCCN3CCC(c4c[nH]c5nnc(-c6ccccc6O)cc45)CC3)cc21` (centres unmarked) [I-7]: in assay [2], the Dmax was under 50% and the DC50 is under 100 nM. The compound further gave a maximal degradation (Dmax) in assay [1] of under 50%.
As to `Cn1c(=O)n(C2CCC(=O)NC2=O)c2cccc(CCCOCCCN3CCC(c4c[nH]c5nnc(-c6ccccc6O)cc45)CC3)c21` (centres unmarked) [I-6], the Dmax in assay [2] and in assay [1] was under 50% in each case. In assay [2], the DC50 lay in the range of 100 to 500 nM.
`Cc1ncsc1-c1ccc(CNC(=O)[C@@H]2C[C@@H](O)CN2C(=O)[C@@H](NC(=O)CN2CCC(c3cc(N4CCC(c5c[nH]c6nnc(-c7ccccc7O)cc56)CC4)ncn3)CC2)C(C)(C)C)cc1` [I-54, (2S,4R)-4-hydroxy-1-((S)-2-(2-(4-(6-(4-(3-(2-hydroxyphenyl)-7H-pyrrolo[2,3-c]pyridazin-5-yl)piperidin-1-yl)pyrimidin-4-yl)piperidin-1-yl)acetamido)-3,3-dimethylbutanoyl)-N-(4-(4-methylthiazol-5-yl)benzyl)pyrrolidine-2-carboxamide]: the values for the Dmax in assay [2] and in assay [4] were over 90% and under 50%, respectively. Further, the DC50 in assay [2] and in assay [4] was over 1000 nM throughout.
The compound `Cc1ncsc1-c1ccc(CNC(=O)[C@@H]2C[C@@H](O)CN2C(=O)[C@@H](NC(=O)CCCCCCCN2CCC(c3c[nH]c4nnc(-c5ccccc5O)cc34)CC2)C(C)(C)C)cc1` [I-12] registered a Dmax in assay [1] of under 50%.
Consider `NCC#Cc1cnc(N2CCC(c3c[nH]c4nnc(-c5ccccc5O)cc34)CC2)nc1` [I-55, 2-(5-(1-(5-(3-aminoprop-1-yn-1-yl)pyrimidin-2-yl)piperidin-4-yl)-7H-pyrrolo[2,3-c]pyridazin-3-yl)phenol], for which the Dmax in assay [2] was over 90%; in assay [4], under 50%. Besides, the DC50 in assay [2] and in assay [4] was over 1000 nM each time.
For the compound `Cc1ncsc1-c1ccc(CNC(=O)[C@@H]2C[C@@H](O)CN2C(=O)[C@@H](NC(=O)CN2CCC(c3cnc(N4CCC(c5c[nH]c6nnc(-c7ccccc7O)cc56)CC4)nc3)CC2)C(C)(C)C)cc1` [I-53], in assay [2], the Dmax was 70 to 90% and the 50% degradation concentration (DC50) is under 100 nM. Besides, in assay [4], the Dmax was in the range of 70 to 90% and the half-maximal degradation concentration (DC50) was in the range of 501 to 1000 nM.

The values are drawn from patent publication US12521438B2, “SMARCA degraders and uses thereof” (Kymera Therapeutics, Inc., priority 2019, dated 2026).
